Source: article PMC6201930 (PLoS ONE, 2018)
Several values for one entry are separate records, joined by “and”; a condition that tells them apart may be missing. Equal entries are not always repeated. Entries after “also recorded” stand apart in the source; their conditions may differ.

Columns and labels:
[1] = Neuromast toxicity assay (DASPEI staining); details: zebrafish, zebrafish embryos 5 dpf, neuromasts (hair cells), other: embryos exposed to the drug in 24-well plates, zebrafish embryos 5 dpf
Experimental: (§1) All neuromast cytotoxicity assays were done at Biobide–BBD Biophenix SL (Gipuzkoa, Spain). […] Compounds were tested at 5 doses. After 24 hours of exposure embryos were incubated in DASPEI (2-(4-(dimethylamino)styryl) -N-Ethylpyridinium Iodide) for neuromast staining. Images of each embryo were taken and neuromasts counted. A compound was classified as ototoxic when the number of neuromasts in the treated group was less than that in the untreated control group (One Way ANOVA, multiple comparisons vs. vehicle).

primary mouse myoblasts = assay: Cytotoxicity in myoblasts; details: read-out: Myoblast CC50; individual determinations (S1 File)
[2] = system: p53 R213* UGA premature termination codon in HDQ-P1 mammary carcinoma cells; assay: HDQ-p53UGA213 readthrough assay (full-length p53, MSD immunoassay); format: cell-based, human; details: for HDQ-p53UGA213 (Maxfold): maximum readthrough activity above background
Experimental: We utilized HDQ-P1 mammary carcinoma cells, which are homozygous for R213*, a UGA premature termination codon in the gene for the tumor suppressor protein p53 [30]. […] Western blot hybridization and Meso Scale Discovery (MSD) immunoassay detection of p53 were done as previously described. […] Cells (45K per well) were grown in 96-well plates and treated with compounds for 24 hours. […] Cells were lysed with 60 μl per well of lysis buffer (20 mM Tris-HCL, pH 7.5, 1 mM EGTA, 1 mM EDTA,150 mM Nacl, 0.5% Triton X100) for one hour at room temperature and 30 μl of lysate per well were transferred to the coated plate and incubated overnight at 4 °C. […] Plates were then washed three times with PBS-T and 30 μl of 0.25 μ/ml goat anti-rabbit IgG-Sulfo-tag antibody (MSD) in TBS-C was added and incubated for 1 hour at room temperature. Plates were then washed three times with PBS-T and 150 μl read buffer (MSD) was added. Plates were read immediately in a SECTOR S 600 (MSD).

Male Sprague Dawley rats = assay: Fourteen day safety study in rats; format: in vivo; details: for Animals completed study: 6 rats per group; for hematology: numbers of red and white blood cells or platelets vs vehicle: 14 days dosing, all dose groups; for accumulation over time (toxicokinetics): Day 1 and Day 14; for histopathology of liver and bone marrow: end of the 14 day dosing period; for urine lipocalin / urine albumin, clusterin, cystatin C and osteopontin: highest dose groups: G418 20 mg/kg, gentamicin X2 40 mg/kg; for urine albumin, clusterin, cystatin C and osteopontin: normalized to urinary creatinine
Experimental: To evaluate in vivo safety we administered the compounds daily to rats (n = 6 rats per dose group) by subcutaneous injection for 14 days.
Male Sprague Dawley rats were purchased from Charles River Laboratories, where 6 weeks old at time of study initiation. Rats were group-housed (3 rats per box) in solid bottom cages. Food and water were provided ad libitum. Rats were dosed daily by subcutaneous injection. […] Blood was collected for serum chemistry by retro-orbital bleeds on Day 7 and by terminal cardiac puncture on Day 14. For urine collection, rats were housed in metabolic cages for 6 hours. Toxicokinetics was evaluated on Day 1 and Day 14 (S4 Fig). Blood was obtained by retro-orbital bleeding at 0, 0.25, 0.75, 1.5, 4, 7, 24 hours post-dose. Rats were euthanized on Day 14, 24 hours after the last dose. Body weights were measured on Days 3, 6, 9, 12 and 14. Endpoints to evaluate kidney function included serum chemistry (BUN and creatinine; Day 7 and Day 14), urine biomarkers (albumin, clusterin, cystatin C, osteopontin, KIM1, and alpha GST; Day 6 and Day 9), hematology (Day 14) and histopathology. For histopathology, kidney, liver, and bone marrow were evaluated. Samples collected for histopathology were sectioned at 5 μm, stained with hematoxylin and eosin (H&E), and examined by a board certified veterinary pathologist. BUN, creatine and hematology parameters were measured using a HESKA veterinary system (Loveland, CO). Urine samples were assayed using MSD electrochemiluminescent immunoassay. Samples were analyzed in triplicate using a Sector Imager 6000 instrument (MSD, Rockville, Maryland). Kits used were the Rat Kidney Injury Panel 1 (albumin, Kim-1, NGAL/lipocalin-2, osteopontin), the Argutus Acute Kidney Injury Panel (α-GST, GSTYb1, RPA-1) and the Clusterin Test Kit (MSD), according to the manufacturer’s instructions. Urinary biomarker concentrations were normalized to urinary creatinine to account for differences in urine production and flow rates.

in vivo = details: zebrafish
Experimental: as §1

[3] = concentration required to double the level of full-length p53 protein, average ± SD, at least three experiments, highest concentration 300 μM
[4] = 10 mg/kg daily s.c. 14 days, 6 kidneys examined
[5] = 20 mg/kg daily s.c. 14 days, kidneys examined: X2 6, G418 3
[6] = 40 mg/kg daily s.c. 14 days, 6 kidneys examined, listed as X2
[7] = 40 mg/kg daily s.c. 14 days, 6 kidneys examined, listed as gentamicin X2

| Structure (SMILES) | HDQ-p53UGA213 EC2X ([2]; AVERAGE (S1 File)) [µM] | HDQ-p53UGA213 max ([2]; AVERAGE (S1 File)) | HDQ-p53UGA213 EC2X [2, 3] [µM] | HDQ-p53UGA213 (Maxfold) ([2]; average ± SD) [fold] | Animals completed study (Male Sprague Dawley rats; 10 mg/kg daily s.c. 14 days) | Kidneys: Mineralization (number of kidneys) (Male Sprague Dawley rats; [4]) | Kidneys: Pelvic dilation (number of kidneys) (Male Sprague Dawley rats; [4]) | Kidneys: Tubular necrosis (number of kidneys) (Male Sprague Dawley rats; [4]) | Animals completed study (Male Sprague Dawley rats; 20 mg/kg daily s.c. 14 days) | Kidneys: Mineralization (number of kidneys) (Male Sprague Dawley rats; [5]) | hematology: numbers of red and white blood cells or platelets vs vehicle (Male Sprague Dawley rats) | accumulation over time (toxicokinetics) (Male Sprague Dawley rats) | histopathology of liver and bone marrow (Male Sprague Dawley rats) | urine lipocalin (Male Sprague Dawley rats) | urine albumin, clusterin, cystatin C and osteopontin (Male Sprague Dawley rats) | other results |
| --- | --- | --- | --- | --- | --- | --- | --- | --- | --- | --- | --- | --- | --- | --- | --- | --- |
| CN[C@@H]1[C@@H](O)[C@@H](O[C@@H]2[C@@H](O)[C@H](O[C@H]3O[C@H](CO)[C@@H](O)[C@H](O)[C@H]3N)[C@@H](N)C[C@H]2N)OC[C@]1(C)O (stereo in doubt) [Gentamicin X2, gentamicin X2] | 18.6 | 39.1 | 19 ± 6 | 39 ± 31 | 6 | 0 | 0 | 2 | 6 | 0 | no change; also recorded: no obvious differences across groups | no accumulation | No histopathology findings | not affected | not increased | CC50 at 24 h ([1]; Neuromast (CC50), 24 hours exposure, maximum of two measurements): 14 ± 7 µM; CC50 at 24 h ([1]; Neuromast CC50, AVERAGE (S1 File)): 13.9 µM; CC50 (primary mouse myoblasts): 614 µM and 402 µM and 481 µM and 324 µM and 1880 µM and 1300 µM; HDQ-p53UGA213 EC2X ([2]; individual experiments (S1 File)): 19.47 µM and 16.13 µM and 19.14 µM and 12.27 µM and 19.04 µM and 21.26 µM and 22.25 µM and 17.98 µM and 6.97 µM and 32.75 µM and 17.45 µM and 17.38 µM and 19.08 µM; HDQ-p53UGA213 max ([2]; individual experiments (S1 File), max fold): 23.4 and 60.4 and 40.4 and 95 and 8.4 and 8 and 12.7 and 10.6 and 84.8 and 5.1 and 37.4 and 60.1 and 62.2; Kidneys: Pelvic dilation (number of kidneys) (Male Sprague Dawley rats; [5]): 1; Kidneys: Tubular necrosis (number of kidneys) (Male Sprague Dawley rats; [5]): 2; effect on body weight (Male Sprague Dawley rats; 20 mg/kg daily s.c., 14 days): did not affect body weight; Animals completed study (Male Sprague Dawley rats; 40 mg/kg daily s.c. 14 days): 6; Kidneys: Mineralization (number of kidneys) (Male Sprague Dawley rats; 40 mg/kg daily s.c. 14 days, 6 kidneys examined): 0; Kidneys: Pelvic dilation (number of kidneys) (Male Sprague Dawley rats; [6]): 4; Kidneys: Tubular necrosis (number of kidneys) (Male Sprague Dawley rats; [6]): 4; Kidneys: Pelvic dilation (number of kidneys) (Male Sprague Dawley rats; [7]): four of six kidneys; Kidneys: Tubular necrosis (number of kidneys) (Male Sprague Dawley rats; [7]): four of six kidneys; effect on body weight (Male Sprague Dawley rats; 40 mg/kg daily s.c., 14 days): only slightly reduced body weight; tolerability (Male Sprague Dawley rats; all dose levels, 14 days daily s.c.): well-tolerated at all dose levels; rats found dead or euthanized (Male Sprague Dawley rats; any of the three dose groups (10, 20, 40 mg/kg), 14 days): No rats were found dead or euthanized |
| CN[C@@H]1[C@@H](O)[C@@H](O[C@@H]2[C@@H](O)[C@H](O[C@H]3O[C@H]([C@@H](C)O)[C@@H](O)[C@H](O)[C@H]3N)[C@@H](N)C[C@H]2N)OC[C@]1(C)O [G418, reference compound] | 9.3 | 43.8 | 9 ± 5 | 44 ± 19 | 6 | 1 | 2 | 4 | 3 | 0 | no obvious differences across groups | no accumulation | No histopathology findings | not affected | increased | CC50 (in vivo; Neuromast (CC50), zebrafish embryos 5 dpf, 24 hours exposure, maximum of two measurements): 2.8 ± 1.2 µM; CC50 (in vivo; Neuromast CC50, individual determinations (S1 File)): 1.9 µM; rats euthanized or found dead (Male Sprague Dawley rats; 20 mg/kg daily s.c., 14 days, 6 rats): three rats were either euthanized or found dead; creatinine and blood urea nitrogen (BUN) levels (Male Sprague Dawley rats; 20 mg/kg, Days 7 and 14, p<0.05 vs vehicle): significantly elevated; urine alpha-GST levels (Male Sprague Dawley rats; G418 20 mg/kg compared to gentamicin X2 40 mg/kg): greatest decrease |
